Assays:
[1] = molar heat capacity at constant pressure; details: 101.33 kPa, Liquid, Small sample (50 mg) DSC
[2] = for viscosity / mass density: 101.33 kPa; for viscosity / mass density / surface tension liquid-gas: Liquid; for mass density: Vibrating tube method; for surface tension liquid-gas: Pendant drop shape; for Glass transition temperature: DTA

CCCCCCCCn1cc[n+](C)c1.O=C([O-])[C@@H]1CCCN1 [1-methyl-3-octyl-1H-imidazol-3-ium L-prolinate]
Details	mass density, [2] [kg/m3]	molar heat capacity at constant pressure, [1] [J/K/mol]	surface tension liquid-gas, [2] [mN/m]	viscosity, [2] [mPa·s]
293.15 K	1064.5	561.68	29.28	1969.8
303.15 K	1058.2	569.53	28.88	839.9
313.15 K	1051.8	578.89	28.46	401.2
323.15 K	1045.5	590.88	28.17	211
333.15 K	1039.1	603.42	27.76	120.3
343.15 K	1032.8	615.85	27.62	73.2
353.15 K	1026.4	627.51	27.14	47.2
363.15 K	1020.1	–	–	31.9
373.15 K	1013.9	–	–	22.4

Details	Glass transition temperature [°C]
[2]	-62

CCCCCCCC[n+]1ccn(C)c1.N[C@@H](CO)C(=O)[O-] [1-methyl-3-octyl-1H-imidazol-3-ium L-serinate]
Details	mass density, [2] [kg/m3]	molar heat capacity at constant pressure, [1] [J/K/mol]	surface tension liquid-gas, [2] [mN/m]	viscosity, [2] [mPa·s]
293.15 K	1075.6	599.21	34.29	2853
303.15 K	1069.3	607.97	32.8	1178.7
313.15 K	1062.7	614.69	32.2	536.2
323.15 K	1056.1	624.21	31.6	271.2
333.15 K	1049.7	634.19	31	149.6
343.15 K	1043.3	644.72	30.01	88.9
353.15 K	1036.9	655.67	29.23	56.2
363.15 K	1030.5	–	–	37.5
373.15 K	1024.2	–	–	26.2

Details	Glass transition temperature [°C]
[2]	-54

CCCCCCCC[n+]1ccn(C)c1.C[C@H](N)C(=O)[O-] [1-methyl-3-octylimidazolium L-alaninate]
Details	mass density, [2] [kg/m3]	molar heat capacity at constant pressure, [1] [J/K/mol]	surface tension liquid-gas, [2] [mN/m]	viscosity, [2] [mPa·s]
293.15 K	985.3	592.06	28.24	705.1
303.15 K	982.1	600.95	27.9	347.3
313.15 K	978.6	609.08	27.23	184.6
323.15 K	975.8	620.49	26.61	106.9
333.15 K	972.9	632.82	26.11	65.7
343.15 K	969.3	645.14	25.55	42.9
353.15 K	966.3	657.43	24.99	29.1
363.15 K	962.6	–	–	20.7
373.15 K	959.7	–	–	15.2

Details	Glass transition temperature [°C]
[2]	-66

CCCCCCCC[n+]1ccn(C)c1.NC(=O)C[C@H](N)C(=O)[O-] [1-methyl-3-octylimidazolium L-asparaginate]
Details	mass density, [2] [kg/m3]	molar heat capacity at constant pressure, [1] [J/K/mol]	surface tension liquid-gas, [2] [mN/m]	viscosity, [2] [mPa·s]
293.15 K	–	654	34.32	–
303.15 K	1061.7	662.93	33.7	3519.9
313.15 K	1057.2	670.78	32.96	1436.8
323.15 K	1052.2	682.99	31.99	659.1
333.15 K	1048.6	694.16	31.73	333.3
343.15 K	1044.1	705.81	30.88	182.6
353.15 K	1039	717.01	30.19	107.1
363.15 K	1034.4	–	–	66.6
373.15 K	1030.1	–	–	43.5

Details	Glass transition temperature [°C]
[2]	-44

CCCCCCCCn1cc[n+](C)c1.NCC(=O)[O-] [1-methyl-3-octylimidazolium glycinate]
Details	mass density, [2] [kg/m3]	molar heat capacity at constant pressure, [1] [J/K/mol]	surface tension liquid-gas, [2] [mN/m]	viscosity, [2] [mPa·s]
293.15 K	1041.7	504.06	35.37	486.4
303.15 K	1035.3	511.67	33.98	248.2
313.15 K	1029.1	518.04	32.81	137.9
323.15 K	1023	526.8	31.35	82.4
333.15 K	1016.8	536.66	30.07	52.3
343.15 K	1010.6	546.99	28.75	34.9
353.15 K	1004.4	555.85	27.42	24.4
363.15 K	998.6	–	–	17.7
373.15 K	992.8	–	–	13.3

Details	Glass transition temperature [°C]
[2]	-69
